Counter-ions that a name gives are not always drawn.
Assays:
[1] = system: carboxyesterase; test: substrate test with carboxyesterase; format: biochemical
Procedure: The serum samples were diluted by a factor of 10 prior to the assay. The substrate solution and the diluted sera were then preincubated at 37° C. in a water bath. Aliquots (0.75 ml) of the substrate solution were then pipetted into small plastic tubes (2 ml capacity), and 0.05 ml samples of the sera were added to each of the substrate aliquots and shaken vigorously to ensure adequate mixing. A blank was run by substituting water (0.05 ml) for the serum. The reaction was stopped after 10 min by the addition of the stopping buffer (0.25 ml) [prepared by dissolving DABCO (22.4 g) in water (200 ml) and adjusting the pH to 10 by the addition of a little conc. hydrochloric acid. The resulting mixture was then made up to 1000 ml with acetone]. […] [formula] where t=time of incubation in hours
Otherwise it was carried out in exactly the same ways as above

[2] = solubility in water or aqueous buffer
[3] = system: N-acetyl-β-D-glucosaminidase (NAGase); test: substrate test with N-acetyl-β-D-glucosaminidase; format: biochemical
Procedure: METHOD. The MIXTURE A is dissolved in 10 ml of distilled water to give SOLUTION A. The solution should be allowed to stand in a thermostatically controlled bath at 37° C., and then 0.75 ml of the solution is added to a series of suitable tubes of 2 ml capacity. To these tubes is added, with vigorous stirring, […] aliquots of the urines under examination, and a blank is prepared by adding 0.05 ml of distilled water rather than urine to one of the tubes. The tubes are then incubate for a set length of time (preferably 30 min), after which 0.25 ml of the STOPPING BUFFER is added to each tube and the absorption (A) at 505 nm is determined for each sample, and adjusted for the value of the blank.
The enzyme activity of the enzyme in each sample is given by the expression using and εmax =42,000. [formula] where t=time of incubation in hours

[4] = molecular target: E. Coli β-galactosidase (Escherichia coli, UniProt P00722); test: substrate test with β-galactosidase; format: biochemical
[5] = system: alkaline phosphatase; test: substrate test with alkaline phosphatase; format: biochemical
[6] = stability on storage; format: physicochemical
[7] = E. coli β-galactosidase, unit inferred

E. Coli β-galactosidase, sequence (P00722 2-1024): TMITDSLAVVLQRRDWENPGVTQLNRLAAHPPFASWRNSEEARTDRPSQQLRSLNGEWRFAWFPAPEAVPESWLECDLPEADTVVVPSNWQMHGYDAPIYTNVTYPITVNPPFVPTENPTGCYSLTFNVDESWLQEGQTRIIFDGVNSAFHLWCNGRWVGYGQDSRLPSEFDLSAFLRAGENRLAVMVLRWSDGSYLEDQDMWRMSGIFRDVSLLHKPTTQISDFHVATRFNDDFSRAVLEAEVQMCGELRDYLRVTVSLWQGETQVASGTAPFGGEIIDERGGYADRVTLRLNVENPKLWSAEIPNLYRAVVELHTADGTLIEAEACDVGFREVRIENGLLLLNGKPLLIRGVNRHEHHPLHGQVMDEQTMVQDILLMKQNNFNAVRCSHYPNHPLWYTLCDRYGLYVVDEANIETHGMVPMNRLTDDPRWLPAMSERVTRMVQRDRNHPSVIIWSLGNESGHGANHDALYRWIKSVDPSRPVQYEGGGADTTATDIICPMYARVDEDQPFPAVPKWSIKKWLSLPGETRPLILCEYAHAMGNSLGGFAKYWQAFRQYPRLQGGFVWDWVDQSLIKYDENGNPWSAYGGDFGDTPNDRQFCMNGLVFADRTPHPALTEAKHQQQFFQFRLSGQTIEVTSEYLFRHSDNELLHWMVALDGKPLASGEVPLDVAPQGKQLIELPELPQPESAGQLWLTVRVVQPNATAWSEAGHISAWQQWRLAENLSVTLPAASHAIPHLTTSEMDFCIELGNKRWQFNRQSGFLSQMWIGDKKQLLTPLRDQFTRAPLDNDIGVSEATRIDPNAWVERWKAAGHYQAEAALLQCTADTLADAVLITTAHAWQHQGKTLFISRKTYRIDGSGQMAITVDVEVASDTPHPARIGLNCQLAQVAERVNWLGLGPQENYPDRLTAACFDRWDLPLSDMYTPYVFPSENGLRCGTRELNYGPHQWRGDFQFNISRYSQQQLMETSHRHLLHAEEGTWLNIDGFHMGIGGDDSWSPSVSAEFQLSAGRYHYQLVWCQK

In the case of “2-[2-(4-Benzoyloxy-3-methoxyphenyl)-vinyl-1-methylquinolinium iodide [21e]”, the “quality as substrate for / cleavage by carboxyesterase” value (from here on “quality as substrate for / cleavage”) [1] is reported as “readily cleaved”.
In the case of `CCC(=O)Oc1ccc(C=C2SC(=S)NC2=O)cc1OC` [3d, n=1, 5-(4-propanoyloxy-3-methoxyphenylmethylene)-2-thioxothiazolidin-4-one], the “solubility in water” value ([2]; water) is reported as “slightly soluble in water” and the “quality as substrate for / cleavage” value [1] is reported as “cleaved by carboxyesterase”.
In the case of `COc1cc(C=C2SC(=S)N(CC(=O)O)C2=O)ccc1O[C@@H]1O[C@H](CO)[C@@H](O)[C@H](O)[C@H]1NC(C)=O` [4b], the “quality as substrate for NAGase” value [3] is reported as “excellent substrate”, the Km ([3]; substrate for NAGase) is reported as 980 µM and the solubility ([2]; water) is reported as no more than 10000 µM.
For `COc1cc(C=C2SC(=S)N(CC(=O)O)C2=O)ccc1O[C@@H]1O[C@H](CO)[C@H](O)[C@H](O)[C@H]1O` [4c, Ammonium 5-[4-(β-D-galactopyranosyloxy)-3-methoxyphenyl-methylene]-2-thioxothiazolidin-4-one-3-ethanoate], the “solubility in water” value ([2]; water) was “easily soluble in water” and the “quality as substrate for E. Coli β-galactosidase” value [4] was “very good substrate”.
With `COc1cc(C=C2SC(=S)N(C)C2=O)ccc1OP(=O)(O)O` [9F, 5-(4-Phosphoroyloxy-3-methoxyphenylmethylene)-2-thioxo-3-methylthiazolidine-4-one] the “solubility in water” value ([2]; water) was “very soluble in water” and the “quality as substrate for / hydrolysis by alkaline phosphatase” value (from here on “quality as substrate for / hydrolysis”) [5] was “hydrolysed readily”.
With `COc1cc(C=C2SC(=S)N(CC(=O)O)C2=O)cc(OC)c1O[C@@H]1O[C@H](CO)[C@@H](O)[C@H](O)[C@H]1NC(C)=O` [11b] the “quality as substrate for NAGase” value [3] was “fair substrate” and the “solubility in water” value ([2]; water) was “soluble in water”.
For `COc1cc(C=C2SC(=S)N(CC(=O)O)C2=O)cc(OC)c1OC(=O)c1ccccc1` [11e], the “quality as substrate for / cleavage” value [1] was “excellent substrate”.
For `CCC(=O)Oc1c(OC)cc(C=C2SC(=S)N(c3ccc(C(=O)O)cc3)C2=O)cc1OC` [13d, n=1, 3-(4-carboxyphenyl)-5-(3,5-dimethoxy-4-propanoyloxyphenylmethylene)-2-thioxothiazolidin-4-one], the “quality as substrate for / cleavage” value [1] was “reacted with carboxyesterase”.
With `COc1cc(C=C2SC(=S)N(c3ccc(S(=O)(=O)O)cc3)C2=O)cc(OC)c1OC(=O)c1ccccc1` [14e, Potassium 5-(4-benzoyloxy-3,5-dimethoxyphenylmethylene) -2-thioxothiazolidin-4-one-3-(phenyl-4-sulphonate)] the “quality as substrate for / cleavage” value [1] was “hydrolysed by carboxyesterase”.
In the case of `COc1cc(N2C(=O)C(=Cc3cc(OC)c(OP(=O)(O)O)c(OC)c3)SC2=S)cc(OC)c1OC` [15f, 2-Thioxo-3-(3,4,5-trimethoxyphenyl)-5-(3,5-dimethoxy-4-phosphoroyloxyphenylmethylene)-thiazolidin-4-one], the “solubility in alkaline buffers” value ([2]; alkaline buffers (pH 8 etc.)) is reported as “moderately soluble” and the “quality as substrate for / hydrolysis” value [5] is reported as “hydrolysed by alkaline phosphatase”.
With `COc1cc(C=C2SC(=S)N(C)C2=O)cc(OC)c1OP(=O)(O)O` [16f, 5-(4-Phosphoroyloxy-3,5-dimethoxyphenylmethylene)-2-thioxo-3-methylthiazolidine-4-one] the Km ([5]; phosphatase) was 330 µM.
In the case of `COc1cc(/C=C/c2cc[n+](C)cc2)ccc1O[C@@H]1O[C@H](CO)[C@H](O)[C@H](O)[C@H]1O` [19c], the “solubility in water” value ([2]; water) is reported as “fair solubility” and the “quality as substrate for E. Coli β-galactosidase” value [4] is reported as “substrate”.
In the case of `COc1cc(/C=C/c2ccc3ccccc3[n+]2C)ccc1O[C@@H]1O[C@H](CO)[C@@H](O)[C@H](O)[C@H]1NC(C)=O` [21b, 2-{2-[4-(2-Acetamido-2-deoxy-β-D-glucopyranosyloxy)-3-methoxyphenyl]-vinyl}-1-methylquinolinium iodide], the “quality as substrate for NAGase” value [3] is reported as “substrate”.
With `COc1cc(/C=C/c2ccc3ccccc3[n+]2C)ccc1O[C@@H]1O[C@H](CO)[C@H](O)[C@H](O)[C@H]1O` [21c, 2-{2-[4-(β-D-Galactopyranosyloxy)-3-methoxyphenyl]-vinyl}-1-methylquinolinium iodide] the “solubility in water” value ([2]; water) was “very good water solubility”, the “quality as substrate for E. Coli β-galactosidase” value [4] was “excellent substrate” and the Km [4, 7] was roughly 200 µM. The “% of vmax achieved” value ([4]; at a concentration of 0.5 mM) was 90%.
For `COc1cc(/C=C/c2ccc3ccccc3[n+]2C)ccc1OP(=O)(O)O` [21f, 2-[2-(4-phosphoroyloxy-3-methoxyphenyl)-vinyl]-1-methylquinolinium iodide], the “solubility in water” value ([2]; water) was “very soluble in water”, the stability in storage [6] was “rather unstable in storage” and the “quality as substrate for / hydrolysis” value [5] was “reacted rapidly”.
With `COc1cc(/C=C/c2ccc3ccccc3[n+]2C)cc(OC)c1O[C@@H]1O[C@H](CO)[C@H](O)[C@H](O)[C@H]1O` [22c, 2-{2-[4-(β-D-Galactopyranosyloxy)-3,5-dimethoxyphenyl]-vinyl}-1-methylquinolinium iodide] the “solubility in water” value ([2]; water) was “easily soluble in water” and the “quality as substrate for E. Coli β-galactosidase” value [4] was “good a substrate”.
For `COc1cc(/C=C/c2ccc3ccccc3[n+]2C)cc(OC)c1OP(=O)(O)O` [22f, 2-[2-(4-phosphoroyloxy-3,5-dimethoxyphenyl)-vinyl]-1-methylquinolinium iodide], the “solubility in water” value ([2]; water) was “very soluble in water”, the “quality as substrate for / hydrolysis” value [5] was “good substrate” and the “% of vmax achieved” value ([5]; at a concentration of 0.5 mM) was 42%. The Km ([5]; phosphatase) was 680 µM.
In the case of `COc1cc(/C=C/c2cc[n+](C)c3ccccc23)ccc1O[C@@H]1O[C@H](CO)[C@@H](O)[C@H](O)[C@H]1NC(C)=O` [23b, 4-{2-[4-(2-acetamido-2-deoxy-β-D-glucopyranosyloxy)-3-methoxyphenyl]-vinyl}-1-methylquinolinium iodide], the “quality as substrate for NAGase” value [3] is reported as “fair substrate” and the “solubility in water” value ([2]; water) is reported as “good water solubility”.
In the case of `COc1cc(/C=C/c2cc[n+](C)c3ccccc23)ccc1O[C@@H]1O[C@H](CO)[C@H](O)[C@H](O)[C@H]1O` [23c, 4-{2-[4-(β-D-Galactopyranosyloxy)-3-methoxyphenyl]-vinyl}-1-methylquinolinium iodide], the “solubility in water” value ([2]; water) is reported as “good water solubility”, the “quality as substrate for E. Coli β-galactosidase” value [4] is reported as “excellent substrate” and the Km [4, 7] is reported as 62 µM. For the same compound, the “% of vmax achieved” value ([4]; at a concentration of 0.5 mM) was 95% and the substrate inhibition ([4]; at concentrations higher than 0.5 mM) was “slight substrate inhibition”.
For `COc1cc(/C=C/c2cc[n+](C)c3ccccc23)cc(OC)c1O[C@@H]1O[C@H](CO)[C@H](O)[C@H](O)[C@H]1O` [24c, 4-{2-[4-(β-D-Galactopyranosyloxy)-3,5-dimethoxyphenyl]-vinyl}-1-methylquinolinium iodide], the “solubility in water” value ([2]; water) was “easily soluble in water” and the “quality as substrate for E. Coli β-galactosidase” value [4] was “good a substrate”.
In the case of `CCC[n+]1ccc(/C=C/c2cc(OC)c(OP(=O)([O-])O)c(OC)c2)c2ccccc21` [25f, 4-[2-(4-Phosphoroyloxy-3,5-dimethoxyphenyl)-vinyl]-1-propylquinolinium], the “solubility in water” value ([2]; water) is reported as “water soluble”, the “quality as substrate for / hydrolysis” value [5] is reported as “excellent substrate” and the Km ([5]; alkaline phosphatase, unit inferred) is reported as 176 µM. The “% of vmax achieved” value ([5]; at a concentration of 1 mM) was 86%.
In the case of `COc1cc(/C=C/c2sc3ccccc3[n+]2C)ccc1O[C@@H]1O[C@H](CO)[C@H](O)[C@H](O)[C@H]1O` [26c, 2-{2-[4-(β-D-Galactopyranosyloxy)-3-methoxyphenyl]-vinyl}-3-methylbenzothiazolium tosylate], the “solubility in water” value ([2]; water) is reported as “very soluble in water”, the “concentration above which substrate inhibition starts to show” value [4] is reported as “above 0.7 mM” and the pH optimum [4] is reported as 6.5. For the same compound, the “quality as substrate for E. Coli β-galactosidase” value [4] was “reacted to give an intense violet-red solution”, the “% of vmax achieved” value ([4]; at a concentration of 1 mM) was 95% and the Km ([4]; β-D-galactosidase from E. Coli) was 230 µM.
In the case of `CCN1C(=O)C(=Cc2ccc(OP(=O)(O)O)c(OC)c2)C(=O)N(CC)C1=S` [27f], the “solubility in water” value ([2]; water) is reported as “good solubility” and the “quality as substrate for / hydrolysis” value [5] is reported as “cleaved by alkaline phosphatase”.
For `CCC(=O)Oc1c(OC)cc(C=C2C(=O)NC(=S)NC2=O)cc1OC` [28d, n=1, 4,6-dioxo-5-(4-propanoyloxy-3,5-dimethoxyphenylmethylene)-2-thioxo-1,3-diazacyclohexane], the “solubility in water” value ([2]; water) was “not particularly good” and the “quality as substrate for / cleavage” value [1] was “poor-to-moderate substrate”.
With `COc1cc(C=C2C(=O)N(c3ccc(S(=O)(=O)O)cc3)N=C2C)cc(OC)c1OC(=O)c1ccccc1` [29e, Potassium 1-(benzene-4-sulfonate)-4-(4-Benzolyloxy-3,5-dimethoxyphenylmethylene)-3-methyl-5-pyrazalone] the “quality as substrate for / cleavage” value [1] was “substrate for carboxyesterase”.
For `COc1cc(C=CC=C2SC(=S)N(CC(=O)O)C2=O)ccc1OC(C)=O` [compound 30, Piperidinium 5-[3-(4'-ethanoyloxy-3'-methoxyphenyl)-prop-2-enylidene]-2-thioxothiazolidin-4-one-3-ethanoate], the “quality as substrate for / cleavage” value [1] was “hydrolysed”.
